Results taken from US6087395A, “Isocarbacyclin derivatives as apoptosis inhibitors” (Japan Science and Technology Corporation, priority 1997, dated 2000).
pIC50: −log10 of the molar value.

Tests used:
hippocampal neurons = experiment: Hippocampal neuron apoptosis induced by high-oxygen (50% oxygen) incubation; assay type: cell-based, rat (Wistar strain, fetal); conditions: 48 hours; for survival rate of neurons at 3000 nM (FIG. 2): control = neurons in 9% oxygen; for survival rate of hippocampal neurons incubated in 50% oxygen (FIG. 1): 5 μM (bFGF 50 nM), neurons in 9% oxygen as control; for pIC50: Rattus norvegicus, Hippocampal neuron, read-out: IC50 (inhibition of hippocampal neural apoptosis); for dose-dependent effect on hippocampal neural apoptosis / neuroprotection (FIG. 2): range of concentrations tested, n=4
Experimental: Effect of 15R-TIC and Deoxy-TIC on hippocampal neuron apoptosis induced by a high-oxygen incubation was tested.
Isocarbacyclin was a pure sample supplied from Teijin Co., Ltd. 15S-TIC was prepared in accordance with the method disclosed in Example 3 of JP-A 245,498/96 by using 15S-16-m-tolyl-17,18,19,20-tetra-nor-carbacyclin which is also disclosed in Example 2 of the same Publication JP-A 245,498/96. The 15R-TIC was prepared by the same method as disclosed in Example 3 of the Publication JP-A 245,498/96. bFGF was the commercially available one.
Hippocampal region was cut out from the fetal rat brain which was aseptically isolated from a pregnant rat (Wistar strain) of […] and the hippocampal region was dispersed into neurons by shaking culture for 30 minutes in a PBS (Ca- and Mg-free) containing DL-cysteine (0.2 mg/ml), bovine serum albumin (0.2 mg/ml), glucose (5 mg/ml), DNase I (0.01%) and papain (9 units/ml). After that, each neutron was planted at the density of 5×10^5 cells/cm^2 on a 24-well plate (coated with polyethyleneimine) filled with a DME/F-12 medium (containing 5% equine serum and 5% fetal bovine serums and incubated for two days in a 5% carbon dioxide gas incubator (9% oxygen). After that, the culture medium was substituted with an DME/F-12 medium (containing 5 μg/ml of transferrin, 5 μg/ml of insulin and 5 nM progasterone) wherefrom serum was removed. Then each sample to be tested was added to the medium, and after 30 minutes, transfered into 50% oxygen. After incubating in 50% oxygen for 48 hours, the survival rate of the neurons was measured. The neurons in 9% oxygen were also added to each sample and the survival rate was measured.
Which regard to the survival rate, the neurons were immobilized by 4% paraformaldehyde, stained with anti-MAP2 antibody and colored by DAB, and the cells positive to MAP2 were counted from the 200-fold enlarged picture whereupon the survival rate was calculated.

[1] = rhesus monkey, in vivo
[2] = test system: hippocampal CA1 pyramidal neurons; experiment: Hippocampal CA1 pyramidal neuron apoptosis induced by transient forebrain ischemia, in vivo; set-up: species or system mongolian gerbil; conditions: continuous infusion into left lateral ventricle for 7 days
Experimental: Effect of 15R-TIC on hippocampal CA1 pyramidal neurons apoptosis induced by ischemic damage in mongolian gerbils was tested in vivo.
To examine whether 15R-TIC can prevent nouronal death in vivo, using an osmotic mini-pomp, 15R-TIC solution was continuously infused for 7 days (started 2 days before the transient ischemia and ended at 5 days) into the left lateral ventricle of gerbils that had been subjected to a transient forebrain ischemia for 3 minutes. Survival number of CA1 pyramidal neurons was assessed by counting neurons with cell bodies larger than 10 μm in the Nissl-staining sections.

In the case of `Cc1cccc(CC/C=C/[C@@H]2[C@H]3CC(CCCCC(=O)O)=C[C@H]3C[C@H]2O)c1` [Deoxy-TIC, 15-Deoxy-16-(m-tolyl)-17,18,19,20-tetranorisocarbacyclin], the “survival rate of neurons at 3000 nM (FIG. 2)” value (hippocampal neurons) was “equivalent to the control”, the “survival rate of hippocampal neurons incubated in 50% oxygen (FIG. 1)” value (shortened to “survival rate … in 50% oxygen (FIG. 1)”) (hippocampal neurons) was “an increase in the survival rate of neurons was observed to the same or even better extent as compared with the case of bFGF” and the pIC50 (hippocampal neurons) was roughly 7.52. For the same compound, the “dose-dependent effect on hippocampal neural apoptosis / neuroprotection (FIG. 2)” value (hippocampal neurons) was “dose-dependent inhibitory effect on neural apoptosis”.

With `COC(=O)CCCCC1=C[C@H]2C[C@@H](O)[C@H](/C=C/[C@H](O)Cc3cccc(C)c3)[C@H]2C1` [15R-TIC methyl ester] the “conversion in the brain (prodrug behaviour)” value [1] was “is converted to 15R-TIC in the brain” and the “pass through blood-brain-barrier / transfer into brain” value ([1]; iv) was “efficiently transfererd into the brain”.

With `Cc1cccc(C[C@@H](O)/C=C/[C@@H]2[C@H]3CC(CCCCC(=O)O)=C[C@H]3C[C@H]2O)c1` [15R-TIC, 15R-16-(m-tolyl)-17,18,19,20-tetranorisocarbacyclin] the “loss of CA1 pyramidal neurons induced by forebrain ischemia” value [2] was “blocked the loss of CA1 pyramidal neurons induced by forebrain ischemia”, the “number of CA1 pyramidal neurons” value ([2]; in a 20 μm thick section, n=4, 3 minutes transient forebrain ischemia, ischemia-free control 1061±220, vehicle 142±28) was 984±299 and the “survival rate of neurons at 3000 nM (FIG. 2)” value (hippocampal neurons) was “equivalent to the control”. The “survival rate … in 50% oxygen (FIG. 1)” value (hippocampal neurons) was “an increase in the survival rate of neurons was observed to the same or even better extent as compared with the case of bFGF”, the pIC50 (hippocampal neurons) was roughly 6.52 and the “dose-dependent effect on hippocampal neural apoptosis / neuroprotection (FIG. 2)” value (hippocampal neurons) was “dose-dependent inhibitory effect on neural apoptosis”.

In the case of `Cc1cccc(C[C@H](O)/C=C/[C@@H]2[C@H]3CC(CCCCC(=O)O)=C[C@H]3C[C@H]2O)c1` [15S-TIC, reference compound], the “survival rate … in 50% oxygen (FIG. 1)” value (hippocampal neurons) was “greatly reduced by apoptosis induced by a high-oxygen condition as same as under the control condition” and the “dose-dependent effect on hippocampal neural apoptosis / neuroprotection (FIG. 2)” value (hippocampal neurons) was “did not have any effect on neuroprotection in the range of concentrations tested”.

For `Cc1cccc(C[C@@H](O)/C=C/[C@@H]2[C@H]3CC(CCCCC(=O)O[11CH3])=C[C@H]3C[C@H]2O)c1` [RTC], the “pass through blood-brain-barrier / transfer into brain” value ([1]; iv) was “equivalent pass through blood-brain-barrier”.

For `CCCCC[C@H](O)/C=C/[C@@H]1[C@H]2CC(CCCCC(=O)O)=C[C@H]2C[C@H]1O` [isocarbacyclin], the “survival rate … in 50% oxygen (FIG. 1)” value (hippocampal neurons) was “greatly reduced by apoptosis induced by a high-oxygen condition as same as under the control condition” and the “dose-dependent effect on hippocampal neural apoptosis / neuroprotection (FIG. 2)” value (hippocampal neurons) was “did not have any effect on neuroprotection in the range of concentrations tested”.

In the case of `COC(=O)CCCCC1=C[C@H]2C[C@@H](O)[C@H](/C=C/[C@H](O)Cc3cccc([11CH3])c3)[C@H]2C1` [RTA], the “conversion in the brain (prodrug behaviour)” value [1] was “could serve as a prodrug for 15R-TIC”, the “pass through blood-brain-barrier / transfer into brain” value ([1]; iv) was “equivalent pass through blood-brain-barrier” and the “retention in the brain” value ([1]; iv) was “retained in the brain further than RTC”.
